These results are taken from patent publication US12532883B2, “Powder compositions comprising salts of C4 to C10 oxocarboxylic acids and of unsaturated or aromatic C6 to C10 carboxylic acids” (Cosphatec GmbH, priority 2019, dated 2026).

Data set [1] relates to Candida albicans. To be noted: cited from earlier work.
Data set [2] is described as follows: Solubility. To be noted: for solubility: 20° C. The data set is classed as physicochemical.
For data set [3], the system named is Escherichia coli. To be noted: cited from earlier work.
For data set [4], the system named is Staphylococcus aureus. To be noted: cited from earlier work.
Data set [5] concerns Pseudomonas aeruginosa. To be noted: cited from earlier work.
Data set [6] can be described thus: Hygroscopicity. It counts as physicochemical.
The conditions of data set [7]: 20° C., Echa Registration Dossier; cited from earlier work.
Data set [8] has as its system Aspergillus brasiliensis. To be noted: cited from earlier work.

As usually defined, the solubility is how much of the substance goes into solution per volume.

In brackets after ≈: the same amount, converted by molar mass. Like-named read-outs stand apart in the source and are kept apart here.

Turning to `CC(=O)CCC(=O)O` [levulinic acid, 4-oxovaleric acid], the MIC in data set [1] is 0.60%; in data set [3], 0.20%; in data set [4], 0.35%; in data set [5], 0.15%. In addition, the “water solubility (in words)” value in data set [2] (water) was “good water solubility”.
As for `COc1ccc(C(=O)[O-])cc1.[Na+]` [p-methoxybenzoate salt, sodium p-methoxybenzoate], the “hygroscopicity (in words)” value in data set [6] is “non-hygroscopic”.
`COc1ccc(C(=O)O)cc1` [p-methoxybenzoic acid]: the MIC was 0.04% in data set [1]; 0.16% in data set [3]; 0.08% in data set [4]; 0.16% in data set [5]; 0.0025% in data set [8]. In addition, the solubility in data set [2] (organic solvent or mixture, ethanol, read-out: solubility in ethanol) amounted to 50000 µg/mL (≈ 329000 µM); in data set [2] (water, read-out: solubility in water), 300 µg/mL (≈ 1970 µM). The “water solubility (in words)” value in data set [2] (water) is recorded as “low water solubility”. Moreover, in data set [7], the solubility in water is 200 µg/mL (≈ 1310 µM).
Turning to `CC(=O)CCC(=O)[O-].[Na+]` [sodium levulinate], the “hygroscopicity (in words)” value in data set [6] was “highly hygroscopic”.
